Experimental data as given in US11427869B2, “T cell balance gene expression, compositions of matters and methods of use thereof” (THE BROAD INSTITUTE, INC., priority 2015, dated 2022).

How the values were obtained:
Rorγt [1] = biological target: T1, Rorγt (Mus musculus, UniProt P51450); assay: Dual luciferase reporter assay of Rorγt transcriptional activity in EL4 cells; assay type: cell-based; conditions: in the presence of an agonistic Rorγt ligand
T1 construct: expressed in transfected cells; host or cells: EL4 cells stably transfected with Rorγt vector
T1 sequence (P51450 1-495 isoform P51450-2): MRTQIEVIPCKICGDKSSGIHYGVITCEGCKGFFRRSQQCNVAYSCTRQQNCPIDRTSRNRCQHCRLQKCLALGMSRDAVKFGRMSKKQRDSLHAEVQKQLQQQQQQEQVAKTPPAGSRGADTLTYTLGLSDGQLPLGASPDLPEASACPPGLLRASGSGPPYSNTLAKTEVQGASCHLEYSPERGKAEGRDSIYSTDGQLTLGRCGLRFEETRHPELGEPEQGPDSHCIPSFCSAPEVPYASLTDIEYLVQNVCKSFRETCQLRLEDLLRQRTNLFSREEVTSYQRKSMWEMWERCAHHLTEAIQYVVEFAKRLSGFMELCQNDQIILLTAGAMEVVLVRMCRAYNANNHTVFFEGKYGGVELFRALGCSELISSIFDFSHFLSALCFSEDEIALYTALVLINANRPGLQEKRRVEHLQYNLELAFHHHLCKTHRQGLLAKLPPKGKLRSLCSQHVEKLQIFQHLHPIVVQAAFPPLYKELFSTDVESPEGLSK
Method: Cells and supernatant were harvested at 96 hours and subjected to MS/LC. Three independent mouse experiments were performed. […] All ChIP and luciferase assay are representative of at least 3 independent experiments.
Three independent experiments were performed.

Rorγt [2] = biological target: T1, Rorγt; assay: Rorγt ChIP-qPCR in Th17 cells; assay type: cell-based; conditions: WT Th17 cells, TGF-β1+IL-6 96h; 10 μM fatty acid added at day 0
Method: (FIG. 18A, FIG. 18B) Rorγt ChIP-PCR analyses in WT and CD5L−/− Th17 cells. WT, CD5L−/− and Rorγt−/− Th17 cells were differentiated with TGF-1+IL-6 for 96h. Enrichment of Rorγt binding to genomic regions of Il17 (FIG. 18A) and Il10 (FIG. 18B) is measured using qPCR. […] Three independent experiments were performed.

Il10 transactivation (Rorγt [1]): enhanced Il10 transactivation
Rorγt binding at Il17 and Il23r loci (ChIP-PCR) (Rorγt [2]): decreased such binding
SMILES: CCCCC/C=C\C/C=C\C/C=C\C/C=C\CCCC(=O)O [PUFA, arachidonic acid]
Rorγt-mediated Il23r transactivation (Rorγt [1]): inhibited Rorγt-mediated Il23r transactivation
Rorγt binding to the Il10 CNS-9 locus (ChIP-PCR) (Rorγt [2]): increased Rorγt binding to the Il10 CNS-9 locus
